Experimental data taken from US20240409585A1, “MACROCYCLIC IMMUNOMODULATORS” (priority 2021, published 2024).
Bridge positions count the residues as written; N and C are the ends. Square brackets hold non-standard residues; d marks the D form. Peptide text beside a SMILES is read from it. * marks the point of attachment. Bip(4'-COOH) = N[C@@H](Cc1ccc(-c2ccc(C(=O)O)cc2)cc1)C(=O)O; Bip(4'-NHAc) = CC(=O)Nc1ccc(-c2ccc(C[C@H](N)C(=O)O)cc2)cc1; Ala(morpholin-4-yl) = N[C@@H](CN1CCOCC1)C(=O)O; Phe(4-COOH) = N[C@@H](Cc1ccc(C(=O)O)cc1)C(=O)O; Bip = N[C@@H](Cc1ccc(-c2ccccc2)cc1)C(=O)O; Phe(3-Me) = Cc1cccc(C[C@H](N)C(=O)O)c1; Val(3-OH) = CC(C)(O)[C@H](N)C(=O)O; Cha = N[C@@H](CC1CCCCC1)C(=O)O; Carboxymethyl = O=C(O)C*; NMeA = CN[C@@H](C)C(=O)O; Dab = NCC[C@H](N)C(=O)O

Target: T1, Alexa fluor-647 labeled human PD-L1-Ig binding to Jurkat cell line over-expressing human PD-1 (Homo sapiens, UniProt Q15116)
T1 construct: expressed in transfected cells; host or cells: Jurkat
T1 sequence (Q15116 25-288): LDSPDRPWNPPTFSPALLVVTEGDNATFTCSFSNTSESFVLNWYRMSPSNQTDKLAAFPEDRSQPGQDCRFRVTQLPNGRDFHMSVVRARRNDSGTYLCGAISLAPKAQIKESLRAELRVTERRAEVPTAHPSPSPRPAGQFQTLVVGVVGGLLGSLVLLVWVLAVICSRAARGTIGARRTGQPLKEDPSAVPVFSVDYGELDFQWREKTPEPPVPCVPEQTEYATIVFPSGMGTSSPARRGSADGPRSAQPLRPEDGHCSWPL
Assay: Jurkat-PD-1 Cell Binding High-Content Screening Assay (CBA): Method 3 (Alexa fluor-647 labeled PD-L1-Ig)
Conditions: Jurkat-PD-1 cells, Alexa fluor-647 labeled PD-L1-Ig 177 nM; head μM; read-out: CBA Method 3 μM
Procedure, shortened: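 Jurkat cells over-expressing human PD-1 in RPMI/10% FCS were preincubated 2 h at 37 °C with compound, then exposed 1 h to Alexa fluor-647 labeled human PD-L1-Ig (177 nM final). Cells fixed in 4% paraformaldehyde with Hoechst 33342 and binding quantified by high-content imaging.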

IC50 [µM] | Compound
0.19 | Cc1cccc(C[C@@H]2NC(=O)[C@H](CC(=O)O)NC(=O)[C@H](Cc3ccc(-c4ccc(C(=O)O)cc4)cc3)NC(=O)[C@H]([C@@H](C)O)NC(=O)CSC[C@@H](C(=O)N[C@@H](CCN)C(N)=O)NC(=O)[C@H](Cc3cnc[nH]3)NC(=O)[C@H](C(C)(C)O)NC(=O)[C@H](CC3CCCCC3)NC(=O)[C@H](CCN)NC(=O)[C@@H](CC(C)C)NC(=O)[C@H](C)N(C)C(=O)[C@H](Cc3ccc(C(=O)O)cc3)NC(=O)[C@H](Cc3ccc(-c4ccccc4)cc3)NC(=O)[C@H](Cc3ccc(-c4ccc(C(=O)O)cc4)cc3)NC2=O)c1 [Example 5131] ({CH2CO}-T[Bip(4'-COOH)]D[Phe(3-Me)][Bip(4'-COOH)][Bip][Phe(4-COOH)][NMeA][dL][Dab][Cha][Val(3-OH)]HC[Dab]-NH2; thioether N-14)
0.02 | CC(=O)Nc1ccc(-c2ccc(C[C@@H]3NC(=O)[C@H](Cc4cccc(C)c4)NC(=O)[C@H](CC(=O)O)NC(=O)[C@H](Cc4ccc(-c5ccc(C(=O)O)cc5)cc4)NC(=O)[C@H]([C@@H](C)O)NC(=O)CSC[C@@H](C(=O)N[C@@H](CCN)C(N)=O)NC(=O)[C@H](Cc4cnc[nH]4)NC(=O)[C@H](C(C)(C)O)NC(=O)[C@H](CC4CCCCC4)NC(=O)[C@H](CCN)NC(=O)[C@@H](CC(C)C)NC(=O)[C@H](C)N(C)C(=O)[C@H](Cc4ccc(OCC(=O)O)cc4)NC(=O)[C@H](Cc4ccc(-c5ccccc5)cc4)NC3=O)cc2)cc1 [Example 5132] ({CH2CO}-T[Bip(4'-COOH)]D[Phe(3-Me)][Bip(4'-NHAc)][Bip]Y(Carboxymethyl)[NMeA][dL][Dab][Cha][Val(3-OH)]HC[Dab]-NH2; thioether N-14)
0.2 | Cc1cccc(C[C@@H]2NC(=O)[C@H](CC(=O)O)NC(=O)[C@H](Cc3ccc(-c4ccc(C(=O)O)cc4)cc3)NC(=O)[C@H](CN3CCOCC3)NC(=O)CSC[C@@H](C(=O)N[C@@H](CCN)C(N)=O)NC(=O)[C@H](Cc3cnc[nH]3)NC(=O)[C@H](C(C)(C)O)NC(=O)[C@H](CC3CCCCC3)NC(=O)[C@H](CCN)NC(=O)[C@@H](CC(C)C)NC(=O)[C@H](C)N(C)C(=O)[C@H](Cc3ccc(C(=O)O)cc3)NC(=O)[C@H](Cc3ccc(-c4ccccc4)cc3)NC(=O)[C@H](Cc3ccc(-c4ccc(C(=O)O)cc4)cc3)NC2=O)c1 [Example 5133] ({CH2CO}-[Ala(morpholin-4-yl)][Bip(4'-COOH)]D[Phe(3-Me)][Bip(4'-COOH)][Bip][Phe(4-COOH)][NMeA][dL][Dab][Cha][Val(3-OH)]HC[Dab]-NH2; thioether N-14)
0.03 | CC(=O)Nc1ccc(-c2ccc(C[C@@H]3NC(=O)[C@H](Cc4cccc(C)c4)NC(=O)[C@H](CC(=O)O)NC(=O)[C@H](Cc4ccc(-c5ccc(C(=O)O)cc5)cc4)NC(=O)[C@H](CN4CCOCC4)NC(=O)CSC[C@@H](C(=O)N[C@@H](CCN)C(N)=O)NC(=O)[C@H](Cc4cnc[nH]4)NC(=O)[C@H](C(C)(C)O)NC(=O)[C@H](CC4CCCCC4)NC(=O)[C@H](CCN)NC(=O)[C@@H](CC(C)C)NC(=O)[C@H](C)N(C)C(=O)[C@H](Cc4ccc(OCC(=O)O)cc4)NC(=O)[C@H](Cc4ccc(-c5ccccc5)cc4)NC3=O)cc2)cc1 [Example 5134] ({CH2CO}-[Ala(morpholin-4-yl)][Bip(4'-COOH)]D[Phe(3-Me)][Bip(4'-NHAc)][Bip]Y(Carboxymethyl)[NMeA][dL][Dab][Cha][Val(3-OH)]HC[Dab]-NH2; thioether N-14)

Continued, molecule first:

Compound | IC50 [µM]
CC(=O)Nc1ccc(-c2ccc(C[C@@H]3NC(=O)[C@H](Cc4cccc(C)c4)NC(=O)[C@H](CC(=O)O)NC(=O)[C@H](Cc4ccc(-c5ccc(C(=O)O)cc5)cc4)NC(=O)[C@H](CN4CCOCC4)NC(=O)CSC[C@@H](C(=O)N[C@@H](CCN)C(N)=O)NC(=O)[C@H](CCC(=O)O)NC(=O)[C@H](C(C)C)NC(=O)[C@H](CC4CCCCC4)NC(=O)[C@H](CC(N)=O)NC(=O)[C@@H](CC(C)C)NC(=O)[C@H](C)N(C)C(=O)[C@H](Cc4ccc(OCC(=O)O)cc4)NC(=O)[C@H](Cc4ccc(-c5ccccc5)cc4)NC3=O)cc2)cc1 [Example 5127] ({CH2CO}-[Ala(morpholin-4-yl)][Bip(4'-COOH)]D[Phe(3-Me)][Bip(4'-NHAc)][Bip]Y(Carboxymethyl)[NMeA][dL]N[Cha]VEC[Dab]-NH2; thioether N-14) | 0.02
Cc1cccc(C[C@@H]2NC(=O)[C@H](CC(=O)O)NC(=O)[C@H](Cc3ccc(-c4ccc(C(=O)O)cc4)cc3)NC(=O)[C@H](CN3CCOCC3)NC(=O)CSC[C@@H](C(=O)N[C@@H](CCN)C(N)=O)NC(=O)[C@H](CCC(=O)O)NC(=O)[C@H](C(C)C)NC(=O)[C@H](CC3CCCCC3)NC(=O)[C@H](CC(N)=O)NC(=O)[C@@H](CC(C)C)NC(=O)[C@H](C)N(C)C(=O)[C@H](Cc3ccc(OCC(=O)O)cc3)NC(=O)[C@H](Cc3ccc(-c4ccccc4)cc3)NC(=O)[C@H](Cc3ccc(-c4ccc(C(=O)O)cc4)cc3)NC2=O)c1 [Example 5128] ({CH2CO}-[Ala(morpholin-4-yl)][Bip(4'-COOH)]D[Phe(3-Me)][Bip(4'-COOH)][Bip]Y(Carboxymethyl)[NMeA][dL]N[Cha]VEC[Dab]-NH2; thioether N-14) | 0.03
CC(=O)Nc1ccc(-c2ccc(C[C@@H]3NC(=O)[C@H](Cc4cccc(C)c4)NC(=O)[C@H](CC(=O)O)NC(=O)[C@H](Cc4ccc(-c5ccc(C(=O)O)cc5)cc4)NC(=O)[C@H](CN4CCOCC4)NC(=O)CSC[C@@H](C(=O)N[C@@H](CCN)C(N)=O)NC(=O)[C@H](CO)NC(=O)[C@H](C(C)(C)O)NC(=O)[C@H](CC4CCCCC4)NC(=O)[C@H](CC(N)=O)NC(=O)[C@@H](CC(C)C)NC(=O)[C@H](C)N(C)C(=O)[C@H](Cc4ccc(OCC(=O)O)cc4)NC(=O)[C@H](Cc4ccc(-c5ccccc5)cc4)NC3=O)cc2)cc1 [Example 5129] ({CH2CO}-[Ala(morpholin-4-yl)][Bip(4'-COOH)]D[Phe(3-Me)][Bip(4'-NHAc)][Bip]Y(Carboxymethyl)[NMeA][dL]N[Cha][Val(3-OH)]SC[Dab]-NH2; thioether N-14) | 0.03
Cc1cccc(C[C@@H]2NC(=O)[C@H](CC(=O)O)NC(=O)[C@H](Cc3ccc(-c4ccc(C(=O)O)cc4)cc3)NC(=O)[C@H](CN3CCOCC3)NC(=O)CSC[C@@H](C(=O)N[C@@H](CCN)C(N)=O)NC(=O)[C@H](CO)NC(=O)[C@H](C(C)(C)O)NC(=O)[C@H](CC3CCCCC3)NC(=O)[C@H](CC(N)=O)NC(=O)[C@@H](CC(C)C)NC(=O)[C@H](C)N(C)C(=O)[C@H](Cc3ccc(OCC(=O)O)cc3)NC(=O)[C@H](Cc3ccc(-c4ccccc4)cc3)NC(=O)[C@H](Cc3ccc(-c4ccc(C(=O)O)cc4)cc3)NC2=O)c1 [Example 5130] ({CH2CO}-[Ala(morpholin-4-yl)][Bip(4'-COOH)]D[Phe(3-Me)][Bip(4'-COOH)][Bip]Y(Carboxymethyl)[NMeA][dL]N[Cha][Val(3-OH)]SC[Dab]-NH2; thioether N-14) | 0.06

Same assay, conditions: Jurkat-PD-1 cells, Alexa fluor-647 labeled PD-L1-Ig 177 nM; nM; read-out: CBA Method 3

IC50 [µM] | Compound
0.0026 | CC(C)C[C@@H]1NC(=O)[C@H](Cc2c[nH]c3ccccc23)NC(=O)[C@H](CC(=O)O)NC(=O)[C@H](Cc2ccc(-c3ccc(C(=O)O)cc3)cc2)NC(=O)[C@H](CN2CCOCC2)NC(=O)CSC[C@@H](C(=O)N[C@@H](CCN)C(N)=O)NC(=O)[C@H](CCC(=O)O)NC(=O)[C@H](C(C)C)NC(=O)[C@H](CC(C)C)NC(=O)[C@H](CC(N)=O)NC(=O)[C@@H](CC(C)C)NC(=O)[C@H](C)N(C)C(=O)[C@H](C(C)C)NC(=O)[C@H](Cc2ccc(-c3ccccc3)cc2)NC1=O [Example 5124] ({CH2CO}-[Ala(morpholin-4-yl)][Bip(4'-COOH)]DWL[Bip]V[NMeA][dL]NLVEC[Dab]-NH2; thioether N-14)
0.0094 | Cc1cccc(C[C@@H]2NC(=O)[C@H](CC(=O)O)NC(=O)[C@H](Cc3ccc(-c4ccc(C(=O)O)cc4)cc3)NC(=O)[C@H](CN3CCOCC3)NC(=O)CSC[C@@H](C(=O)N[C@@H](CCN)C(N)=O)NC(=O)[C@H](CCC(=O)O)NC(=O)[C@H](C(C)C)NC(=O)[C@H](CC(C)C)NC(=O)[C@H](CC(N)=O)NC(=O)[C@@H](CC(C)C)NC(=O)[C@H](C)N(C)C(=O)[C@H](C(C)C)NC(=O)[C@H](Cc3ccc(-c4ccccc4)cc3)NC(=O)[C@H](CC(C)C)NC2=O)c1 [Example 5125] ({CH2CO}-[Ala(morpholin-4-yl)][Bip(4'-COOH)]D[Phe(3-Me)]L[Bip]V[NMeA][dL]NLVEC[Dab]-NH2; thioether N-14)
0.0032 | Cc1cccc(C[C@@H]2NC(=O)[C@H](CC(=O)O)NC(=O)[C@H](Cc3ccc(-c4ccc(C(=O)O)cc4)cc3)NC(=O)[C@H](CN3CCOCC3)NC(=O)CSC[C@@H](C(=O)N[C@@H](CCN)C(N)=O)NC(=O)[C@H](CCC(=O)O)NC(=O)[C@H](C(C)(C)O)NC(=O)[C@H](CC(C)C)NC(=O)[C@H](CC(N)=O)NC(=O)[C@@H](CC(C)C)NC(=O)[C@H](C)N(C)C(=O)[C@H](C(C)C)NC(=O)[C@H](Cc3ccc(-c4ccccc4)cc3)NC(=O)[C@H](CC(C)C)NC2=O)c1 [Example 5126] ({CH2CO}-[Ala(morpholin-4-yl)][Bip(4'-COOH)]D[Phe(3-Me)]L[Bip]V[NMeA][dL]NL[Val(3-OH)]EC[Dab]-NH2; thioether N-14)
0.0068 | Cc1cccc(C[C@@H]2NC(=O)[C@H](CC(=O)O)NC(=O)[C@H](Cc3ccc(C(=O)O)cc3)NC(=O)[C@H](C)NC(=O)CSC[C@@H](C(=O)N[C@@H](CCN)C(N)=O)NC(=O)[C@H](CC(=O)O)NC(=O)[C@H](C(C)C)NC(=O)[C@H](CC3CCCCC3)NC(=O)[C@H](CCN)NC(=O)[C@@H](CC(C)C)NC(=O)[C@H](C)N(C)C(=O)[C@H](Cc3ccc(C(=O)O)cc3)NC(=O)[C@H](Cc3ccc(-c4ccccc4)cc3)NC(=O)[C@H](Cc3ccc(C(=O)O)cc3)NC2=O)c1 [Example 5135] ({CH2CO}-A[Phe(4-COOH)]D[Phe(3-Me)][Phe(4-COOH)][Bip][Phe(4-COOH)][NMeA][dL][Dab][Cha]VDC[Dab]-NH2; thioether N-14)
